# Laboratory results from article PMC4514850, “A Novel TGR5 Activator WB403 Promotes GLP-1 Secretion and Preserves Pancreatic β-Cells in Type 2 Diabetic Mice” (PLoS ONE, 2015).
# Tests used:
# normal mice = assay: 4-week treatment of normal mice (hypoglycemia risk); type: in vivo; settings: 100 mg/kg, 4 weeks
# Procedure: Mice were treated for 4 weeks by WB403 and sitagliptin at 100 mg/kg. Glibenclamide at 2.5 mg/kg was used as positive control for hypoglycemia. FBG (A) and PBG (B) were measured every week. Values are mean ± SD (n = 10). *p<0.05, **p<0.01 vs. vehicle group. (TIF) Click here for additional data file.
# ICR mice = assay: GLP-1 secretion in vivo in ICR mice; settings: oral 50, 100 mg/kg with DPP-4 inhibitor 5 mg/kg; blood 10 min after 2 g/kg glucose; n = 5
# Procedure: Endocrine differentiation was induced by seeding NCI-H716 cells in plates coated with Matrigel (Becton Dickinson). Cells were washed with RPMI-1640 medium without FBS and incubated in the same medium containing indicated compounds at 10 μmol/l. The condition medium was collected after 30 min. GLP-1 secretion in MIN6 or primary enterocytes was conducted similarly. To isolate primary enterocytes, ileum or colon was cut into 2 cm length, rinsed by PBS (pH7.2∼7.4) before dispersed in 10 mmol/l EDTA/PBS (pH7.4) for 15 min at room temperature, followed by pipetting up and down. Enterocytes were collected by filtration through a 70 μm cell strainer. To study the effect of WB403 on GLP-1 secretion in vivo, mice in group of three were fasted overnight and orally received 0, 50, 100 mg/kg of WB403 dispersed in 0.5% CMC with a DPP-4 inhibitor (5 mg/kg). There were 5 animals in each group. 2 g/kg glucose was administrated 30 min later and blood was collected 10 min after glucose challenge.
# The GLP-1 (active) ELISA kit was purchased from Millipore, and insulin ELISA kit was from Mercodia. For quantitative determination of cAMP, a competitive enzyme immunoassay kit from R&D system was used. All immunoassays were performed according to manufacturers’ instructions.
# hTGR5 [1] = target: T1, hTGR5 (Homo sapiens, UniProt Q8TDU6); assay: TGR5-dependent cAMP accumulation (ELISA) in transfected 293T cells; type: cell-based
# T1 construct: expressed in transfected cells; host or cells: 293T cells, transient transfection with pTGR5 (gift from Prof. Johan Auwerx)
# T1 sequence (Q8TDU6 1-330): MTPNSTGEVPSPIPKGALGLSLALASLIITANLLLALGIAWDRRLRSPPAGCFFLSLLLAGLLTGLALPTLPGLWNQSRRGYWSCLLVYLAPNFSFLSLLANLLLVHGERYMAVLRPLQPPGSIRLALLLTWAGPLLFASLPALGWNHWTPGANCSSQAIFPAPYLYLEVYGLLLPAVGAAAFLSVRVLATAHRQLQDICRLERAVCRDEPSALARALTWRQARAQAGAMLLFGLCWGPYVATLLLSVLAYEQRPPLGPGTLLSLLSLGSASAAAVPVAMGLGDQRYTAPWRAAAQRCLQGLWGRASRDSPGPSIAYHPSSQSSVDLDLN
# Procedure: For human TGR5 luciferase (luc) assay, 293T cells were co-transfected with pCRE-luc, pTGR5 (kind gift from Prof. Johan Auwerx, Ecole Polytechnique Fédérale de Lausanne, Lausanne, Switzerland) and pRenilla (Promega, USA). WB403 was added 5 h later. Cells were harvested after 16 h and subjected to luciferase analysis on Lumistar Optima chemiluminescent detector (BMG labtech, Germany). For cAMP testing, 293T cells transiently transfected with pTGR5 or pGPR119 (GeneCopoeia, USA) were washed by FBS-free DMEM, and stimulated with WB403 in FBS-free DMEM containing 3-isobutyl-1-methyl-xanthine (IBMX, Sigma). Cell lysates were collected 30 min later and used for cAMP ELISA assay. FLIPR Calcium 5 assay kit (Molecular Devices, USA) was used for calcium mobilization assay. […] Increase of the intracellular Ca^2+ concentration was monitored by Flexstation 3 system (Molecular Devices, USA).
# The GLP-1 (active) ELISA kit was purchased from Millipore, and insulin ELISA kit was from Mercodia. For quantitative determination of cAMP, a competitive enzyme immunoassay kit from R&D system was used. […]
# Fig 1 WB403 activated TGR5 and promoted active GLP-1 secretion. […] Gallbladders (GB) were removed 30 min later and volumes measured then normalized to body weight (B.W.). n = 10. **p<0.01 vs. vehicle group. […]
# hTGR5 [2] = target: T1, hTGR5; assay: human TGR5 CRE-luciferase assay in co-transfected 293T cells; type: cell-based
# Procedure: For human TGR5 luciferase (luc) assay, 293T cells were co-transfected with pCRE-luc, pTGR5 (kind gift from Prof. Johan Auwerx, Ecole Polytechnique Fédérale de Lausanne, Lausanne, Switzerland) and pRenilla (Promega, USA). WB403 was added 5 h later. Cells were harvested after 16 h and subjected to luciferase analysis on Lumistar Optima chemiluminescent detector (BMG labtech, Germany). For cAMP testing, 293T cells transiently transfected with pTGR5 or pGPR119 (GeneCopoeia, USA) were washed by FBS-free DMEM, and stimulated with WB403 in FBS-free DMEM containing 3-isobutyl-1-methyl-xanthine (IBMX, Sigma). Cell lysates were collected 30 min later and used for cAMP ELISA assay. FLIPR Calcium 5 assay kit (Molecular Devices, USA) was used for calcium mobilization assay. 293-GPR40 stable cells (kindly provided by Prof. Naiming Zhou of Zhejiang University, Hanzhou, China) or 293 cells transient transfected with GPR120 were seeded at 50,000 cells per well in black-walled clear-bottomed 96-well plates (Costar). An equal volume of loading buffer containing Fluo 4-AM was added the following day and cells were incubated for 1 h before stimulated with compounds. Increase of the intracellular Ca^2+ concentration was monitored by Flexstation 3 system (Molecular Devices, USA).
# Fig 1 WB403 activated TGR5 and promoted active GLP-1 secretion. (A) WB403 stimulated hTGR5 in CRE-luciferase report system at the concentration range of 1–20 μmol/l. (B) WB403 stimulated hTGR5 specific cAMP accumulation at the concentration range of 1–50 μmol/l. n = 3. **p<0.01, ***p<0.001 vs. DMSO (+TGR5) group. (C) The hTGR5 targeted CRE-luciferase activity of WB403 and ZY403. […] (D) Effect of WB403 and ZY403 on gallbladders of mice. Normal mice were fasted overnight and treated with compounds (200 mg/kg) or vehicle (DMSO) by ip injection. Gallbladders (GB) were removed 30 min later and volumes measured then normalized to body weight (B.W.). n = 10. **p<0.01 vs. vehicle group. (E) Structure of WB403 and ZY403. WB403 promoted GLP-1 secretion in NCI-H716 cells (F), primary enterocytes (G), and MIN6 cells (H). n = 3. *p<0.05, **p<0.01, ***p<0.001 vs. vehicle group. (I) WB403 promoted GLP-1 in ICR mice. n = 5. **p<0.01 vs. vehicle group. Values represent mean ± SEM.
# [3] = control 293T cells transfected with an empty plasmid
structure (smiles),measurement,setting,value
"CCc1cc(-c2nc(C)c(COCc3ccc(Br)cc3)s2)ccn1 [WB403, 4-(5-((4-bromobenzyloxy)-methyl)-4-methylthiazol-2-yl)-2-ethylpyridine]",FBG lowering in normal mice,normal mice,did not cause significant FBG and PBG lowering
same,PBG lowering in normal mice,normal mice,did not cause significant FBG and PBG lowering
same,GLP-1 concentration in serum,ICR mice,significantly increased
same,Gs-coupled cAMP accumulation through TGR5,"hTGR5 [1]; 1–50 μmol/l, 30 min, IBMX, Fig 1B",dose-dependently stimulate
same,cAMP activity in control 293T cells,hTGR5 [1]; [3],no stimulation
same,stimulation of luciferase reaction through TGR5,"hTGR5 [2]; 1–20 μmol/l, Fig 1A",dose-dependently stimulate
same,EC50,"hTGR5 [2]; CRE-luciferase, 293T cells, read-out: TGR5 EC50",5.5 µM
same,luciferase activity in control 293T cells,hTGR5 [2]; [3],no stimulation
same,TGR5 luciferase activity in primary screen (fold increase compared to DMSO control),"hTGR5 [2]; screen of 100 compounds, S1 Fig",relatively lower luciferase activity
